Experimental data taken from patent publication US8916702B2 (priority 2012, dated 2014).
Like-named read-outs stand apart in the source and are kept apart here.

Tested on: HCV pseudoparticles (genotype 1a HCV E1 and E2 envelope, H77C isolate)
Assay: microbe, parasite or virus in culture
Type: cell-based
Settings: Hepatitis C virus
[1] = Huh-7, read-out: Activity (EC50 class), HCV pseudoparticles (genotype 1a, H77C) in Huh7 cells, EC50 expressed as class A/B
[2] = Huh-7, 48 h, read-out: Activity (EC50 class), HCV pseudoparticle infection of Huh7 cells, luciferase 2 days after infection, EC50 expressed as class A/B
[3] = Huh-7, 48 h, HCV pseudoparticle infection of Huh7 cells, luciferase 2 days after infection, average of duplicates
[4] = Huh-7, 48 h, read-out: Activity (EC50 class), HCV pseudoparticles, Huh7 cells, luciferase 2 days after infection, average of duplicates
[5] = Huh-7, 48 h, HCV pseudoparticles, Huh7 cells, luciferase 2 days after infection, average of duplicates

SMILES | EC50 [1] | EC50 [2] | also measured
Cn1nccc1NC(=O)C(=O)NCC(C)(C)CNC(=O)c1ccc(Nc2nc(NC3(c4ccc(Cl)cc4)CC3)nc(OCC(F)(F)F)n2)cc1 [Compound 3036] | 0.01 to 10 nM |  | 
COC(=O)[C@H](CCNC(=O)C(=O)Nc1ccc(N2CCCC2=O)cc1)NC(=O)c1ccc(Nc2nc(NC3(c4ccc(Cl)cc4)CC3)nc(OCC(F)(F)F)n2)cc1 [Compound 3126] | 0.01 to 10 nM |  | 
O=C(NC/C(=N/C(=O)c1ccc(Nc2nc(NC3(c4ccc(Cl)cc4)CC3)nc(OCC(F)(F)F)n2)cc1)C(=O)O)C(=O)Nc1ccc(Oc2ccccc2)cc1 [Compound 3150] | 0.01 to 10 nM |  | 
CC(C)(CNC(=O)C(=O)Nc1nc2ccccc2s1)CNC(=O)c1ccc(Nc2nc(NC3(c4ccc(Cl)cc4)CC3)nc(OCC(F)(F)F)n2)cc1F [Compound 3568] | 0.01 to 10 nM |  | 
COC(=O)[C@H](CNC(=O)C(=O)NC1Cc2ccccc2C1)NC(=O)c1ccc(Nc2nc(NC3(c4ccc(Cl)cc4)CC3)nc(OCC(F)(F)F)n2)cc1 [Compound 1291] |  | 0.01 to 10 nM | 
COC(=O)[C@H](CCNC(=O)C(=O)NC1CCCCC1C)NC(=O)c1ccc(Nc2nc(NC3(c4ccc(Cl)cc4)CC3)nc(OCC(F)(F)F)n2)cc1 (stereo partly shown) [Compound 1075] |  | 0.01 to 10 nM | 
CCOC(=O)[C@H](CCNC(=O)C(=O)N(C)C)NC(=O)c1ccc(Nc2nc(NC3(c4ccc(Cl)cc4)CC3)nc(OCC(F)(F)F)n2)cc1 [Compound 1026, (S)-ethyl 2-(4-(4-(1-(4-chlorophenyl)cyclopropylamino)-6-(2,2,2-trifluoroethoxy)-1,3,5-triazin-2-ylamino)benzamido)-4-(2-(dimethylamino)-2-oxoacetamido)butanoate] |  | 0.01 to 10 nM | EC50 [3]: 2.68 nM
COC(=O)[C@H](CCNC(=O)C(=O)NCCc1cccc(OC)c1)NC(=O)c1ccc(Nc2nc(NC3(c4ccc(Cl)cc4)CC3)nc(OCC(F)(F)F)n2)cc1 [Compound 1309] |  | 0.01 to 10 nM | 
COC(=O)[C@H](CNC(=O)C(=O)Nc1ccc(N2CCN(Cc3ccccc3)CC2)cc1)NC(=O)c1ccc(Nc2nc(NC3(c4ccc(Cl)cc4)CC3)nc(OCC(F)(F)F)n2)cc1 [Compound 3102] | 0.01 to 10 nM |  | 
CC(C)(CNC(=O)C(=O)Nc1ccc(OC(F)(F)F)cc1)CNC(=O)c1ccc(Nc2nc(NC3(c4ccc(Cl)cc4)CC3)nc(OCC(F)(F)F)n2)cc1F [Compound 3559] | 0.01 to 10 nM |  | 
COC(=O)/C(CCNC(=O)C(=O)Nc1ccc(Oc2ccccc2)nc1)=N\C(=O)c1ccc(Nc2nc(NC3(c4ccc(Cl)cc4)CC3)nc(OCC(F)(F)F)n2)cc1 [Compound 3593] | 0.01 to 10 nM |  | 
Cn1ncc2ccc(NC(=O)C(=O)NCC(C)(C)CNC(=O)c3ccc(Nc4nc(NC5(c6ccc(Cl)cc6)CC5)nc(OCC(F)(F)F)n4)cc3)cc21 [Compound 3024] | 0.01 to 10 nM |  | 
CC(C)(CNC(=O)C(=O)Nc1ccc(C[Si](C)(C)C)cc1)CNC(=O)c1ccc(Nc2nc(NC3(c4ccc(Cl)cc4)CC3)nc(OCC(F)(F)F)n2)cc1 [Compound 3054] | 0.01 to 10 nM |  | 
COc1cc(OC)nc(-c2ccc(NC(=O)C(=O)NC[C@H](NC(=O)c3ccc(Nc4nc(NC5(c6ccc(Cl)cc6)CC5)nc(OCC(F)(F)F)n4)cc3)C(=O)O)cc2)n1 [Compound 3270] | 0.01 to 10 nM |  | 
COC(=O)[C@H](CNC(=O)C(=O)Nc1cccc(S(=O)(=O)c2ccccc2)c1)NC(=O)c1ccc(Nc2nc(NC3(c4ccc(Cl)cc4)CC3)nc(OCC(F)(F)F)n2)cc1 [Compound 3701] |  |  | EC50 [4]: 0.01 to 10 nM
CC(C)(CNC(=O)C(=O)Nc1nc2c(Cl)ccc(Cl)c2s1)CNC(=O)c1ccc(Nc2nc(NC3(c4ccc(Cl)cc4)CC3)nc(OCC(F)(F)F)n2)cc1F [Compound 3681] |  |  | EC50 [4]: 0.01 to 10 nM
COC(=O)[C@H](CCNC(=O)C(=O)Nc1cccc(O)c1)NC(=O)c1ccc(Nc2nc(NC3(c4ccc(Cl)cc4)CC3)nc(OCC(F)(F)F)n2)cc1 [Compound 1521] |  | 0.01 to 10 nM | 
O=C(NCc1cc(F)cc(F)c1)C(=O)NC[C@H](NC(=O)c1ccc(Nc2nc(NC3(c4ccc(Cl)cc4)CC3)nc(OCC(F)(F)F)n2)cc1)C(=O)O [Compound 1173] |  | 0.01 to 10 nM | EC50 [3]: 0.74 nM
C[C@H]1[C@H]2C[C@@H](C[C@H]1NC(=O)C(=O)NCC[C@H](NC(=O)c1ccc(Nc3nc(NC4(c5ccc(Cl)cc5)CC4)nc(OCC(F)(F)F)n3)cc1)C(=O)O)C2(C)C [Compound 1130] |  | 0.01 to 10 nM | EC50 [3]: 0.12 nM
COC(=O)[C@H](CCNC(=O)C(=O)Nc1ccc(-n2ccc(C(F)(F)F)n2)cc1)NC(=O)c1ccc(Nc2nc(NC3(c4ccc(Cl)cc4)CC3)nc(OCC(F)(F)F)n2)cc1 [Compound 3127] | 0.01 to 10 nM |  | 
COC(=O)[C@H](CCNC(=O)C(=O)NCCc1ccncc1)NC(=O)c1ccc(Nc2nc(NC3(c4ccc(Cl)cc4)CC3)nc(OCC(F)(F)F)n2)cc1 [Compound 1311] |  | 0.01 to 10 nM | 
COC(=O)[C@H](CCNC(=O)C(=O)Nc1ccc(CCCl)cc1)NC(=O)c1ccc(Nc2nc(NC3(c4ccc(Cl)cc4)CC3)nc(OCC(F)(F)F)n2)cc1 [Compound 3115] | 0.01 to 10 nM |  | 
O=C(NC[C@H](NC(=O)c1ccc(Nc2nc(NC3(c4ccc(Cl)cc4)CC3)nc(OCC(F)(F)F)n2)cc1)C(=O)O)C(=O)Nc1cccc(Oc2ccccc2)c1 [Compound 3750] |  |  | EC50 [4]: 0.01 to 10 nM

SMILES | EC50 [1] | EC50 [2] | also measured
Nc1ccc(NC(=O)C(=O)NCC[C@H](NC(=O)c2ccc(Nc3nc(NC4(c5ccc(Cl)cc5)CC4)nc(OCC(F)(F)F)n3)cc2)C(=O)O)cn1 [Compound 3630] |  |  | EC50 [4]: 0.01 to 10 nM
CC(C)(CNC(=O)C(=O)Nc1ccc2nccnc2c1)CNC(=O)c1ccc(Nc2nc(NC3(c4ccc(Cl)cc4)CC3)nc(OCC(F)(F)F)n2)cc1 [Compound 3026] | 0.01 to 10 nM |  | 
COC(=O)[C@H](CCNC(=O)C(=O)Nc1ccc(-n2cnnn2)cc1)NC(=O)c1ccc(Nc2nc(NC3(c4ccc(Cl)cc4)CC3)nc(OCC(F)(F)F)n2)cc1 [Compound 3308] | 0.01 to 10 nM |  | 
Cc1nnnn1-c1cc(Nc2nc(NC3(c4ccc(Cl)cc4)CC3)nc(OCC(F)(F)F)n2)ccc1C(=O)NCC(C)(C)CNC(=O)C(=O)Nc1cccc(F)c1 [Compound 3517] | 0.01 to 10 nM |  | 
Cc1ccc(NC(=O)C(=O)NCC(C)(C)CNC(=O)c2ccc(Nc3nc(NC4(c5ccc(Cl)cc5)CC4)nc(OCC(F)(F)F)n3)cc2F)c(Cl)c1 [Compound 3664] |  |  | EC50 [5]: 0.038 nM; EC50 [4]: 0.01 to 10 nM
COC(=O)[C@H](CNC(=O)C(=O)Nc1ccc(-c2ccc(C)cc2)cc1)NC(=O)c1ccc(Nc2nc(NC3(c4ccc(Cl)cc4)CC3)nc(OCC(F)(F)F)n2)cc1 [Compound 3188] | 0.01 to 10 nM |  | 
CC1CC(NC(=O)C(=O)NCC[C@H](NC(=O)c2ccc(Nc3nc(NC4(c5ccc(Cl)cc5)CC4)nc(OCC(F)(F)F)n3)cc2)C(=O)O)CC(C)(C)C1 (stereo partly shown) [Compound 1127] |  | 0.01 to 10 nM | 
O=C(NC[C@H](NC(=O)c1ccc(Nc2nc(NC3(c4ccc(Cl)cc4)CC3)nc(OCC(F)(F)F)n2)cc1)C(=O)O)C(=O)Nc1ccc(Oc2ccccc2)nc1 [Compound 3771] |  |  | EC50 [4]: 0.01 to 10 nM
O=C(NCCc1cccnc1)C(=O)NCC[C@H](NC(=O)c1ccc(Nc2nc(NC3(c4ccc(Cl)cc4)CC3)nc(OCC(F)(F)F)n2)cc1)C(=O)O [Compound 1337] |  | 0.01 to 10 nM | 
O=C(NCC1CCCOC1)C(=O)NC[C@H](NC(=O)c1ccc(Nc2nc(NC3(c4ccc(Cl)cc4)CC3)nc(OCC(F)(F)F)n2)cc1)C(=O)O (stereo partly shown) [Compound 1470] |  | 0.01 to 10 nM | 
CC(C)(CNC(=O)C(=O)NCc1ccc(-c2ccccc2)cc1)CNC(=O)c1ccc(Nc2nc(NC3(c4ccc(Cl)cc4)CC3)nc(OCC(F)(F)F)n2)cc1 [Compound 3017] | 0.01 to 10 nM |  | 
COC(=O)[C@H](CNC(=O)C(=O)Nc1cccc(-c2noc(C)n2)c1)NC(=O)c1ccc(Nc2nc(NC3(c4ccc(Cl)cc4)CC3)nc(OCC(F)(F)F)n2)cc1 [Compound 3730] |  |  | EC50 [5]: 0.6 nM; EC50 [4]: 0.01 to 10 nM
CCC(CC)NC(=O)C(=O)NCC[C@H](NC(=O)c1ccc(Nc2nc(NC3(c4ccc(Cl)cc4)CC3)nc(OCC(F)(F)F)n2)cc1)C(=O)O [Compound 1126] |  | 0.01 to 10 nM | 
O=C(NCCCCNC(=O)c1ccc(Nc2nc(NC3(c4ccc(Cl)cc4)CC3)nc(OCC(F)(F)F)n2)cc1)C(=O)Nc1ccccc1 [Compound 3403] | 0.01 to 10 nM |  | 
COC(=O)[C@H](CNC(=O)C(=O)NCCc1cccc(F)c1)NC(=O)c1ccc(Nc2nc(NC3(c4ccc(Cl)cc4)CC3)nc(OCC(F)(F)F)n2)cc1 [Compound 1289] |  | 0.01 to 10 nM | 
CCc1ccc(NC(=O)C(=O)NC[C@H](NC(=O)c2ccc(Nc3nc(NC4(c5ccc(Cl)cc5)CC4)nc(OCC(F)(F)F)n3)cc2)C(=O)O)cc1 [Compound 3296] | 0.01 to 10 nM |  | EC50 (Huh-7, 48 h, HCV pseudoparticles (genotype 1a, H77C) in Huh7 cells, average of duplicate, luciferase 2 days after infection): 0.24 nM
O=C(NCC1CCCO1)C(=O)NC[C@@H](NC(=O)c1ccc(Nc2nc(NC3(c4ccc(Cl)cc4)CC3)nc(OCC(F)(F)F)n2)cc1)C(=O)O (stereo partly shown) [Compound 1042] |  | 0.01 to 10 nM | 
O=C(NC[C@H](NC(=O)c1ccc(Nc2nc(NC3(c4ccc(Cl)cc4)CC3)nc(OCC(F)(F)F)n2)cc1)C(=O)O)C(=O)NC1CCC(O)CC1 (stereo partly shown) [Compound 1078] |  | 10 to 1000 nM | EC50 [3]: 11.9 nM
CCN(CC)CCNC(=O)c1ccc(NC(=O)C(=O)NC/C(=N/C(=O)c2ccc(Nc3nc(NC4(c5ccc(Cl)cc5)CC4)nc(OCC(F)(F)F)n3)cc2)C(=O)O)cc1 [Compound 3157] | 0.01 to 10 nM |  | 
COC(=O)[C@H](CCNC(=O)C(=O)NCc1ccccc1)NC(=O)c1ccc(Nc2nc(NC3(c4ccc(Cl)cc4)CC3)nc(OCC(F)(F)F)n2)cc1 [Compound 1142] |  | 0.01 to 10 nM | 
COC(=O)[C@H](CNC(=O)C(=O)Nc1ccc(N(C)c2nc(C)cc(C)n2)cc1)NC(=O)c1ccc(Nc2nc(NC3(c4ccc(Cl)cc4)CC3)nc(OCC(F)(F)F)n2)cc1 [Compound 3104] | 0.01 to 10 nM |  | 
CC(C)(CNC(=O)C(=O)Nc1ccc(Cl)cc1Cl)CNC(=O)c1ccc(Nc2nc(NC3(c4ccc(Cl)cc4)CC3)nc(OCC(F)(F)F)n2)cc1 [Compound 3453] | 0.01 to 10 nM |  | 
